Values of other authors as cited in US7468367B2, “Ethylene diamine derivatives and their use as orexin-receptor antagonists” (Smithkline Beecham p.l.c., priority 2001, dated 2008).

Legend:
orexin receptors = conditions: central administration at the onset of the normal sleep period
freely-feeding rats = conditions: central administration, 4 hour time period

## orexin-A: peptide ligand and agonist of the orexin receptors; the human amino acid sequence is given in the 1st table (QPLPDCCRQKTCSCRLYELLHGAGNHAAGILTL; not fully specified; Orexin-A; UniProt O43612 34-66, looked up)
Orexin receptors
  arousal in rat sleep/EEG: dose-related increase in arousal
freely-feeding rats
  increase in food intake over control rats receiving vehicle: approximately four-fold
